Reference: ChEMBL document CHEMBL5247592, “Discovery of novel VEGFR-2-PROTAC degraders based on the localization of lysine residues via recruiting VHL for the treatment of gastric cancer” (Eur J Med Chem, 2022)
Active and inactive are the calls of the source. The calls are words filed in the database; no cut-off is given here.

Assays:
HGC-27 [1] = experiment: Antiinvasive activity in human HGC-27 cells assessed as reduction in number of invasive cells at 0.1 uM incubated for 24 hrs by transwell invasion assay (reference value: 118); assay type: functional
HGC-27 [2] = experiment: Antiinvasive activity in human HGC-27 cells assessed as reduction in number of invasive cells at 0.033 uM incubated for 24 hrs by transwell invasion assay (reference value: 118); assay type: functional
[3] = target: T1, von Hippel-Lindau disease tumor suppressor/Vascular endothelial growth factor receptor 2 (Homo sapiens, UniProt P35968+P40337); experiment: PROTAC activity at VHL/VEGFR2 in human HGC-27 cells assessed as reduction in VEGFR2 protein level by measuring maximal efficacy at 0.15 uM incubated for 24 hrs by Western blot analysis relative to control; assay type: cell-based
T1 sequence (P35968 20-1356 limits assumed): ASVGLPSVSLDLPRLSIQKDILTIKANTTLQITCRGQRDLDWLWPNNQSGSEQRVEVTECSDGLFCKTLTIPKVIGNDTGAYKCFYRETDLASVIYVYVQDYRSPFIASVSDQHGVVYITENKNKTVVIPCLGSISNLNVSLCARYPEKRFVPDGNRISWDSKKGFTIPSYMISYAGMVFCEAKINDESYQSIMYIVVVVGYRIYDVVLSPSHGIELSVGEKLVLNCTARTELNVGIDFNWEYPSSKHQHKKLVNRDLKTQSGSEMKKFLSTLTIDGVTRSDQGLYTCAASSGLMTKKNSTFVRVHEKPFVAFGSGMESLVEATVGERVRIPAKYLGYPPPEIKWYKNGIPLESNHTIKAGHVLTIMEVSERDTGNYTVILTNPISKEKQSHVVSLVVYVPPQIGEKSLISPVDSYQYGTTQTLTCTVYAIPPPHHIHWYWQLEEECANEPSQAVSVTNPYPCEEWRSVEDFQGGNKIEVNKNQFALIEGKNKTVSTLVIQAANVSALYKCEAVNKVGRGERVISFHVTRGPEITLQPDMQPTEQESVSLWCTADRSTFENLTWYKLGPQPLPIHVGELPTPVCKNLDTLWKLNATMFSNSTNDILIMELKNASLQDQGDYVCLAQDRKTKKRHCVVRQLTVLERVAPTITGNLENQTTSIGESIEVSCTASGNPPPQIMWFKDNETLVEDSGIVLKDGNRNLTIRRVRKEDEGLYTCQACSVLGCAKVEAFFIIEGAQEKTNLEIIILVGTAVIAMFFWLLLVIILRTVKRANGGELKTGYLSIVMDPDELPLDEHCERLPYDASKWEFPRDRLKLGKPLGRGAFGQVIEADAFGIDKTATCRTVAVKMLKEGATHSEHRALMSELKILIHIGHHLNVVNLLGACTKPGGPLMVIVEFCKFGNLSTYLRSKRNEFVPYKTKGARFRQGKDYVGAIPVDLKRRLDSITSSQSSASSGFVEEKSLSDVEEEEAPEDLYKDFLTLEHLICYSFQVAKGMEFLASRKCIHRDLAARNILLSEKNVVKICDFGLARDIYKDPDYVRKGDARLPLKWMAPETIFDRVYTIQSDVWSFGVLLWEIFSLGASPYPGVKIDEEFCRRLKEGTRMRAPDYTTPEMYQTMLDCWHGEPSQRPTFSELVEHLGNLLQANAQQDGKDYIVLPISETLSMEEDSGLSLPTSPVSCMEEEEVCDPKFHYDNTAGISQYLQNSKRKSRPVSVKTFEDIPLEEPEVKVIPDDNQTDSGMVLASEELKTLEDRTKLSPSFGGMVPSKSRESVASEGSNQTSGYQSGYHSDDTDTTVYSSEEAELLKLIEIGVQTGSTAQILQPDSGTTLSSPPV
T1 sequence (P40337 whole entry partner): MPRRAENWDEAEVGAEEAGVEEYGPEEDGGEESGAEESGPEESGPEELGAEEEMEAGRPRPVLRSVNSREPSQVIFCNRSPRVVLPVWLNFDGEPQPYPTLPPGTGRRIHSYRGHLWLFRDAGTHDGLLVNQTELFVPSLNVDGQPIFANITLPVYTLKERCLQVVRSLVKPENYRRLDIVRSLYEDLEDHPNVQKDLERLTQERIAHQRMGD

HGC-27 [4] = experiment: Induction of cell cycle arrest in human HGC-27 cells assessed as S phase cells at 0.1 uM incubated for 24 hrs by PI staining based flow cytometric analysis (reference value: 26.4%); assay type: functional
HGC-27 [5] = experiment: Induction of apoptosis in human HGC-27 cells assessed as necrotic cells at 0.033 uM incubated for 24 hrs by Annexin V-FITC/PI staining based analysis (reference value: 0.65 %); assay type: functional
HGC-27 [6] = experiment: Antiinvasive activity in human HGC-27 cells assessed as reduction in number of invasive cells at 3.33 uM incubated for 24 hrs by transwell invasion assay (reference value: 118); assay type: functional
[7] = target: T1, von Hippel-Lindau disease tumor suppressor/Vascular endothelial growth factor receptor 2; experiment: PROTAC activity at VHL/VEGFR2 in human HGC-27 cells assessed as induction of VEGRF2 protein degradation at 1 uM preincubated with VH032 for 2 hrs followed by compound addition and measured after 24 hrs by Western blot analysis; assay type: cell-based
HGC-27 [8] = experiment: Induction of cell cycle arrest in human HGC-27 cells assessed as S phase cells at 1 uM incubated for 24 hrs by PI staining based flow cytometric analysis (reference value: 26.4%); assay type: functional
[9] = target: T1, von Hippel-Lindau disease tumor suppressor/Vascular endothelial growth factor receptor 2; experiment: PROTAC activity at VHL/VEGFR2 in human HGC-27 cells assessed as induction of VEGRF2 protein degradation at 1 uM preincubated with MG-132 for 2 hrs followed by compound addition and measured after 24 hrs by Western blot analysis; assay type: cell-based
[10] = Effect on VEGFR2 mRNA expression in human HGC-27 cells at 1 uM incubated for 24 hrs by qPCR analysis relative to control; assay type: functional
HGC-27 [11] = experiment: Induction of apoptosis in human HGC-27 cells assessed as early apoptotic cells at 0.033 uM incubated for 24 hrs by Annexin V-FITC/PI staining based analysis (reference value: 1.7 %); assay type: functional
[12] = Effect on VEGFR2 mRNA expression in human HGC-27 cells at 0.033 uM incubated for 24 hrs by qPCR analysis relative to control; assay type: functional
HGC-27 [13] = experiment: Induction of cell cycle arrest in human HGC-27 cells assessed as S phase cells at 3.33 uM incubated for 24 hrs by PI staining based flow cytometric analysis (reference value: 26.4%); assay type: functional
HGC-27 [14] = experiment: Inhibition of cell migration in human HGC-27 cells assessed as suppression of cell migration at 1 uM incubated for 24 hrs by wound healing assay relative to control; assay type: functional
[15] = target: T1, von Hippel-Lindau disease tumor suppressor/Vascular endothelial growth factor receptor 2; experiment: PROTAC activity at VHL/VEGFR2 in HUVEC cells assessed as reduction in VEGFR2 protein level at 10 uM incubated for 24 hrs by Western blot analysis; assay type: cell-based
[16] = target: T1, von Hippel-Lindau disease tumor suppressor/Vascular endothelial growth factor receptor 2; experiment: PROTAC activity at VHL/VEGFR2 in human HGC-27 cells assessed as half-life of intracellular VEGFR2 protein […] at 1 uM measured upto 24 hrs in the presence of cycloheximide by Western blot analysis (reference value: 5.45 hrs); assay type: cell-based
HGC-27 [17] = experiment: Inhibition of cell migration in human HGC-27 cells at 0.033 to 3.33 uM by wound healing assay; assay type: functional, cell-based; conditions: dose 0.033-3.33 µM, time <= 24.0 hrs, TDE = time-dependent effect
HGC-27 [18] = experiment: Induction of cell cycle arrest in human HGC-27 cells assessed as accumulation of cells at G2/M phase incubated for 24 hrs by PI staining based flow cytometric analysis; assay type: functional; conditions: dose 0.033-3.33 µM
HGC-27 [19] = experiment: Induction of cell cycle arrest in human HGC-27 cells assessed as S phase cells at 0.33 uM incubated for 24 hrs by PI staining based flow cytometric analysis (reference value: 26.4%); assay type: functional
[20] = target: T1, von Hippel-Lindau disease tumor suppressor/Vascular endothelial growth factor receptor 2; experiment: PROTAC activity at VHL/VEGFR2 in human HGC-27 cells assessed as reduction in relative VEGRF2 expression level at 1 uM preincubated with MLN4924 for 2 hrs followed by compound addition and measured after 24 hrs by Western blot analysis; assay type: cell-based

- Emax [3]: 73.7%
- Activity [7]: inactive
- Activity [9]: inactive
- Activity [15]: inactive
- T1/2 [16]: 5.45 h
- Activity [20]: inactive
Structure (SMILES): Cc1ccc(NC(=O)Cn2cc(-c3ccc4c(NC(=O)c5ccc(NC(=O)CCCCCCCCC(=O)N[C@H](C(=O)N6C[C@H](O)C[C@H]6C(=O)NCc6ccc(-c7scnc7C)cc6)C(C)(C)C)cc5)n[nH]c4c3)cn2)cc1C(F)(F)F
- Activity (HGC-27 [1]): 100
- Activity (HGC-27 [2]): 116
- Activity (HGC-27 [4]): 25.8%
- Activity (HGC-27 [5]): 0.32%
- Activity (HGC-27 [6]): 4
- Activity (HGC-27 [8]): 28.5%
- Activity [10]: 91.3%
- Activity (HGC-27 [11]): 2%
- Activity [12]: 99.3%
- Activity (HGC-27 [13]): 21.2%
- inhibition at 1 µM (HGC-27 [14]): 21.2%
- inhibition (HGC-27 [17]): Tde
- Activity (HGC-27 [18]): Dose-Dependent Effect
- Activity (HGC-27 [19]): 23.4%
